Earlier results, collected in PMC8961646, “Fibroblast Activation Protein Specific Optical Imaging in Non-Small Cell Lung Cancer” (Frontiers in Oncology, 2022).

Test system: FAP expressing tumours
Settings: murine tumour models, NIR fluorescence; cited from earlier work
From the text: Prior studies investigating FAP as an optical probe target focussed on near infrared (NIR) fluorophores where signal can be detected with minimal intrinsic tissue autofluorescence. Li et al. designed an activatable NIR fluorescent probe (ANPFAP) for FAP which was composed of the NIR dye Cy5.5 and the quencher dye QSY21 which were linked by a peptide sequence which is cleaved specifically by FAP (KGPGPNQC) ([24]). […] Although not developed as an imaging optical ...

For KGPGPNQC [ANPFAP], the “Signal in FAP expressing tumours” value is listed as “higher signal”.
